Reference: patent US20140088192A1, “SUBCUTANEOUSLY INFUSIBLE LEVODOPA PRODRUG COMPOSITIONS AND METHODS OF INFUSION” (SynAgile Corporation, priority 2010, published 2014)

Experiments:
[1] = Precipitation of LD from / clarity of LDEE solutions on holding
Method: 150 mg of LDEE was dissolved in 3 mL of physiological saline (0.90% weight/volume of NaCl/water) at about 23° C., then at about 37° C. an additional amount of 22 mg of LDEE was added for a total LDEE concentration of about 57.3 mg/mL or about 0.25M.
At the ambient temperature of about 23° C., 226 mg of LDEE was dissolved in 1 mL of 1 M HCl. To the formed aqueous LDEE.HCl solution an additional amount of about 184 mg LDEE was added, followed by about 0.1 mL deionized water.
At the ambient temperature of about 23° C., about 113 mg of LDEE was dissolved in 1 mL of 1 M HCl. To the formed aqueous LDEE.HCl solution an additional amount of about 87 mg LDEE was added, followed by about 0.1 mL distilled water.
At the ambient temperature of about 23° C., about 226 mg of LDEE was dissolved in 1 mL of 1 M acetic acid. To the formed aqueous LDEE acetate salt solution an additional amount of about 168 mg LDEE was added. […] The pH of the resulting suspension was about 7.01 at about 26.4° C.
1.7 g of LDEE (7.5 millimoles) was dissolved in 1.405 mL of aqueous 5M HCl, then enough trisodium citrate was added to increase the pH to 5.5.
After flushing with nitrogen, the solution was kept for 7 days at 23±2° C. in a vial sealed with a grey elastomeric, substantially oxygen impermeable septum.

[2] = Achievable concentration and density of concentrated LDEE salt solutions
Method: The pH was adjusted to 4.60 by adding 160 mg of sodium acetate.

[3] = tested on: volunteer; assay: Intramuscular / subcutaneous infusion of LDEE.HCl in human volunteers, local tolerability; type: in vivo; conditions: s.c. abdomen, 0.24 mL of 2.3 M pH 4.5 over about 90 min in 8 boluses
[4] = pH change of LDEE.HCl solutions on holding; type: physicochemical; conditions: for pH of about 0.48M LDEE•HCl Solution / pH of about 0.95M LDEE•HCl Solution: 40° C.; for pH: about 2.7 M
Method: An about 2.6 M LDEE.HCl pH 2.1 aqueous solution was prepared by dissolving 1.506 g LDEE in 1.3 mL of aqueous 5M HCl and adjusting the pH by adding 0.24 μL of 1 M HCl. […] After 24 hours, the pH was 2.0.
To determine whether hydrolysis of subcutaneously infusible solutions of 0.95 M and 0.48 M LDEE.HCl concentrations excessively lowers their pH or drives their LD concentration beyond the saturation point where LD could precipitate, their starting pH of less <3 adjusted by adding an about 1.5 M trisodium citrate solution, were kept at 40° C. for 24 hrs.

## CCOC(=O)[C@@H](N)Cc1ccc(O)c(O)c1.Cl [LDEE.HCl, LDEE Hydrochloride]
[1]; about 0.7 M LDEE + LDEE.HCl, pH about 6.87, 37° C., 16 hours
  precipitation of LD: extensive precipitation of LD
[1]; about 1.3 M LDEE + LDEE.HCl, pH about 6.75, 37° C., 3 hours
  precipitation of LD: no precipitation
[1]; about 1.3 M LDEE + LDEE.HCl, pH about 6.75, 37° C., 16 hours
  precipitation of LD: extensive precipitation of LD
[2]; aqueous solution
  concentration of aqueous solutions allowed by solubility: greater than 2.5 M
[2]; pH 4.60 (sodium acetate), ambient about 23±2° C.
  concentration of clear solution (high solubility): about 2.5 M
[3]
  nodule formation: nor did it cause the formation of a nodule
[4]; 0 h, starting pH 4.19
  pH of about 0.48M LDEE•HCl Solution: 4.19
[4]; 0 h, starting pH 4.2
  pH of about 0.95M LDEE•HCl Solution: 4.2
[4]; 0 h, starting pH 4.4
  pH of about 0.95M LDEE•HCl Solution: 4.4
[4]; 0 h, starting pH 4.45
  pH of about 0.48M LDEE•HCl Solution: 4.45
[4]; 0 h, starting pH 4.59
  pH of about 0.48M LDEE•HCl Solution: 4.59
[4]; 0 h, starting pH 4.6
  pH of about 0.95M LDEE•HCl Solution: 4.6
[4]; 0 h, starting pH 4.78
  pH of about 0.48M LDEE•HCl Solution: 4.78
[4]; 0 h, starting pH 4.82
  pH of about 0.95M LDEE•HCl Solution: 4.82
[4]; 0 h, starting pH 5.01
  pH of about 0.48M LDEE•HCl Solution: 5.01
  pH of about 0.95M LDEE•HCl Solution: 5.01
[4]; 0 h, starting pH 5.3
  pH of about 0.95M LDEE•HCl Solution: 5.3
[4]; 0 h, starting pH 5.31
  pH of about 0.48M LDEE•HCl Solution: 5.31
[4]; 0 h, starting pH 5.6
  pH of about 0.95M LDEE•HCl Solution: 5.6
[4]; 0 h, starting pH 5.61
  pH of about 0.48M LDEE•HCl Solution: 5.61
[4]; 2 h, starting pH 4.19
  pH of about 0.48M LDEE•HCl Solution: 4.43
[4]; 2 h, starting pH 4.2
  pH of about 0.95M LDEE•HCl Solution: 4.19
[4]; 2 h, starting pH 4.4
  pH of about 0.95M LDEE•HCl Solution: 4.38
[4]; 2 h, starting pH 4.45
  pH of about 0.48M LDEE•HCl Solution: 4.58
[4]; 2 h, starting pH 4.59
  pH of about 0.48M LDEE•HCl Solution: 4.68
[4]; 2 h, starting pH 4.6
  pH of about 0.95M LDEE•HCl Solution: 4.61
[4]; 2 h, starting pH 4.78
  pH of about 0.48M LDEE•HCl Solution: 4.85
[4]; 2 h, starting pH 4.82
  pH of about 0.95M LDEE•HCl Solution: 4.74
[4]; 2 h, starting pH 5.01
  pH of about 0.48M LDEE•HCl Solution: 5.01
  pH of about 0.95M LDEE•HCl Solution: 5.01
[4]; 2 h, starting pH 5.3
  pH of about 0.95M LDEE•HCl Solution: 5.34
[4]; 2 h, starting pH 5.31
  pH of about 0.48M LDEE•HCl Solution: 5.42
[4]; 2 h, starting pH 5.6
  pH of about 0.95M LDEE•HCl Solution: 5.68
[4]; 2 h, starting pH 5.61
  pH of about 0.48M LDEE•HCl Solution: 5.65
[4]; 6 h, starting pH 4.19
  pH of about 0.48M LDEE•HCl Solution: 4.34
[4]; 6 h, starting pH 4.2
  pH of about 0.95M LDEE•HCl Solution: 4.02
[4]; 6 h, starting pH 4.4
  pH of about 0.95M LDEE•HCl Solution: 4.28
[4]; 6 h, starting pH 4.45
  pH of about 0.48M LDEE•HCl Solution: 4.54
[4]; 6 h, starting pH 4.59
  pH of about 0.48M LDEE•HCl Solution: 4.6
[4]; 6 h, starting pH 4.6
  pH of about 0.95M LDEE•HCl Solution: 4.53
[4]; 6 h, starting pH 4.78
  pH of about 0.48M LDEE•HCl Solution: 4.71
[4]; 6 h, starting pH 4.82
  pH of about 0.95M LDEE•HCl Solution: 4.69
[4]; 6 h, starting pH 5.01
  pH of about 0.48M LDEE•HCl Solution: 4.9
  pH of about 0.95M LDEE•HCl Solution: 4.84
[4]; 6 h, starting pH 5.3
  pH of about 0.95M LDEE•HCl Solution: 5.21
[4]; 6 h, starting pH 5.31
  pH of about 0.48M LDEE•HCl Solution: 5.23
[4]; 6 h, starting pH 5.6
  pH of about 0.95M LDEE•HCl Solution: 5.53
[4]; 6 h, starting pH 5.61
  pH of about 0.48M LDEE•HCl Solution: 5.53
[4]; 24 h, starting pH 4.2
  pH of about 0.95M LDEE•HCl Solution: 3.86
[4]; 24 h, starting pH 4.4
  pH of about 0.95M LDEE•HCl Solution: 4.03
[4]; 24 h, starting pH 4.45
  pH of about 0.48M LDEE•HCl Solution: 4.19
[4]; 24 h, starting pH 4.59
  pH of about 0.48M LDEE•HCl Solution: 4.32
[4]; 24 h, starting pH 4.6
  pH of about 0.95M LDEE•HCl Solution: 4.22
[4]; 24 h, starting pH 4.78
  pH of about 0.48M LDEE•HCl Solution: 4.52
[4]; 24 h, starting pH 4.82
  pH of about 0.95M LDEE•HCl Solution: 4.36
[4]; 24 h, starting pH 5.01
  pH of about 0.48M LDEE•HCl Solution: 4.6
  pH of about 0.95M LDEE•HCl Solution: 4.58
[4]; 24 h, starting pH 5.3
  pH of about 0.95M LDEE•HCl Solution: 4.8
[4]; 24 h, starting pH 5.31
  pH of about 0.48M LDEE•HCl Solution: 4.91
[4]; 24 h, starting pH 5.6
  pH of about 0.95M LDEE•HCl Solution: 5.19
[4]; 24 h, starting pH 5.61
  pH of about 0.48M LDEE•HCl Solution: 5.23
[4]; about 2.6 M, starting pH 2.1, 23±2° C.
  pH after 24 hours: 2.0
[4]; start pH about 4.49, 24 h at 40° C.
  pH: 4.2
[4]; start pH about 4.49, 48 h at 40° C.
  pH: 4.0
